Calls of active or inactive are those of the source. The rule behind the calls is not given here.
Key:
[1] = tested on: Trypanosoma cruzi; assay: Potency index, ratio of benznidazole IC50 to compound IC50 for amastigote stage of Trypanosoma cruzi Tulahuen C4 infected in rat L6 cells; assay type: functional
[2] = tested on: Trypanosoma cruzi; assay: Antiparasitic activity against amastigote stage of Trypanosoma cruzi Tulahuen C4 infected in rat L6 cells assessed as parasite growth inhibition after 96 hrs by beta-galactosidase reporter gene assay; assay type: functional, organism-based; settings: Tulahuen C4, L6, 96 h
[3] = Selectivity index, ratio of IC50 for rat L6 cells to IC50 for axenic amastigote stage of Leishmania donovani MHOM-ET-67/L82
[4] = tested on: L6; assay: Cytotoxicity against rat L6 cells assessed as growth inhibition after 72 hrs by Alamar blue assay; assay type: cell-based; settings: L6, 72 h
[5] = Selectivity index, ratio of IC50 for rat L6 cells to IC50 for trypomastigote stage of Trypanosoma brucei rhodesiense STIB 900
[6] = tested on: Trypanosoma brucei rhodesiense; assay: Antiparasitic activity against trypomastigote stage of Trypanosoma brucei rhodesiense STIB 900 assessed as parasite growth inhibition after 72 hrs by Alamar blue assay; assay type: functional, organism-based; settings: STIB 900, 72 h
[7] = Selectivity index, ratio of IC50 for rat L6 cells to IC50 for amastigote stage of Trypanosoma cruzi Tulahuen C4 infected in rat L6 cells
[8] = tested on: Leishmania donovani; assay: Antiparasitic activity against axenic amastigote stage of Leishmania donovani MHOM-ET-67/L82 assessed as parasite growth inhibition after 72 hrs by Alamar blue assay; assay type: functional, organism-based; settings: MHOM-ET-67/L82, 72 h
[9] = tested on: Mus musculus; assay: Toxicity in Balb/c mouse at 13 mg/kg/day, ip; assay type: organism-based; settings: in vivo
[10] = tested on: Trypanosoma brucei brucei; assay: Antiparasitic activity against blood stream form of Trypanosoma brucei brucei overexpressing type-1 nitroreductase after 3 days by Alamar blue assay in presence of tetracycline; assay type: functional, organism-based; settings: 72 h
[11] = tested on: Leishmania donovani; assay: Potency index, ratio of miltefosine IC50 to compound IC50 for axenic amastigote stage of Leishmania donovani MHOM-ET-67/L82; assay type: functional
[12] = Prodrug conversion assessed as Trypanosoma brucei recombinant His-tagged type-1 nitroreductase-mediated drug metabolism by measuring NADH oxidation after 5 mins by spectrophotometric analysis; assay type: ADME; settings: isolated protein
[13] = tested on: Trypanosoma brucei brucei; assay: Ratio of IC50 for blood stream form of Trypanosoma brucei brucei overexpressing type-1 nitroreductase in absence of tetracycline to IC50 for blood stream form of Trypanosoma brucei brucei overexpressing type-1 nitroreductase in presence of tetracycline; assay type: functional
[14] = tested on: Trypanosoma brucei brucei; assay: Antiparasitic activity against wild type blood stream form of Trypanosoma brucei brucei after 3 days by Alamar blue assay; assay type: functional, organism-based; settings: 72 h
[15] = Prodrug conversion assessed as Trypanosoma cruzi recombinant type-1 nitroreductase-mediated drug metabolism by measuring NADH oxidation after 5 mins by spectrophotometric analysis; assay type: ADME; settings: isolated protein
[16] = Cytotoxicity against mouse peritoneal macrophages; assay type: cell-based; settings: Peritoneal macrophage cell
[17] = tested on: Trypanosoma cruzi; assay: Antichagasic activity against trypomastigote stage of Trypanosoma cruzi Brazil infected in Balb/c mouse assessed as reduction in parasite load at 13 mg/kg/day, ip measured after 5 days by luciferase reporter gene assay; assay type: functional, organism-based
[18] = tested on: Trypanosoma brucei brucei; assay: Antiparasitic activity against blood stream form of Trypanosoma brucei brucei overexpressing type-1 nitroreductase after 3 days by Alamar blue assay in absence of tetracycline; assay type: functional, organism-based; settings: 72 h
[19] = tested on: Leishmania donovani; assay: Antileishmanial activity against amastigote stage of Leishmania donovani infected in mouse peritoneal macrophages assessed as reduction in parasite burden after 96 hrs by Giemsa staining method; assay type: functional, organism-based
[20] = Efflux ratio of apparent permeability across basolateral to apical side over apical to basolateral side in human Caco2 cells after 2 hrs; settings: Caco-2
[21] = Half life in human microsomes at 1 uM in presence of NADPH
[22] = Half life in human microsomes at 1 uM in absence of NADPH

SMILES: O=C(Cn1cnc([N+](=O)[O-])n1)Nc1cccc(OCc2ccccc2)c1
- Ratio IC50 [1]: 17
- IC50 [2]: 0.028 µM
- selectivity ratio [3]: 20
- IC50 [4]: 68 µM
- selectivity ratio [5]: 14
- IC50 [6]: 4.9 µM
- selectivity ratio [7]: 2420
- IC50 [8]: 3.4 µM

SMILES: O=C(Cn1cnc([N+](=O)[O-])n1)Nc1ccc(-c2ccc(Cl)cc2)cc1
- Activity [9]: Non-toxic
- Ratio IC50 [1]: 45
- IC50 [10]: 0.85 µM
- Ratio IC50 [11]: 0.95
- Drug metabolism [12]: 2492 nmol/min/mg
- Ratio IC50 [13]: 0.8
- IC50 [14]: 0.69 µM
- selectivity ratio [3]: 738
- selectivity ratio [5]: 140
- Drug metabolism [15]: 585 nmol/min/mg
- IC50 [16]: > 84 µM
- selectivity ratio [7]: 2800
- Activity [17]: Active
- IC50 [18]: 0.69 µM
- IC50 [19]: > 84 µM
- IC50 [8]: 0.17 µM

SMILES: CC(C)NCC(O)COc1ccc(CC(N)=O)cc1 (centres undefined) [ATENOLOL]
- efflux ratio at 2 h [20]: 3.7

SMILES: CCCCCCCCCCCCCCCCOP(=O)([O-])OCC[N+](C)(C)C [MILTEFOSINE]
- IC50 [19]: 6.89 µM

SMILES: O=C(Cn1ccnc1[N+](=O)[O-])Nc1ccc(Oc2ccc(Cl)cc2)cc1
- Ratio IC50 [1]: 0.78
- IC50 [2]: 2.6 µM
- IC50 [10]: 1.71 µM
- Ratio IC50 [11]: 1.2
- Drug metabolism [12]: 3337 nmol/min/mg
- Ratio IC50 [13]: 3.8
- IC50 [14]: 4.72 µM
- selectivity ratio [3]: 937
- IC50 [4]: 127 µM
- selectivity ratio [5]: 50
- IC50 [6]: 2.6 µM
- Drug metabolism [15]: 817 nmol/min/mg
- IC50 [16]: > 81 µM
- selectivity ratio [7]: 49
- IC50 [18]: 6.48 µM
- IC50 [19]: 15 µM
- IC50 [8]: 0.14 µM

SMILES: O=C(Cn1cnc([N+](=O)[O-])n1)Nc1ccc(Cc2ccccc2)cc1
- Ratio IC50 [1]: 34
- IC50 [2]: 0.068 µM
- Ratio IC50 [11]: 0.12
- selectivity ratio [3]: 31
- IC50 [4]: 36 µM
- selectivity ratio [5]: 17
- IC50 [6]: 2.1 µM
- IC50 [16]: > 89 µM
- selectivity ratio [7]: 528
- IC50 [19]: > 30 µM
- IC50 [8]: 1.2 µM

SMILES: O=C(Cn1cnc([N+](=O)[O-])n1)NC1CCN(Cc2ccccc2)CC1
- Ratio IC50 [1]: 0.28
- IC50 [2]: 8 µM
- selectivity ratio [3]: < 1
- IC50 [4]: 114 µM
- selectivity ratio [5]: 9.6
- IC50 [6]: 12 µM
- selectivity ratio [7]: 14
- IC50 [8]: 133 µM

SMILES: O=C(Cn1cnc([N+](=O)[O-])n1)Nc1ccc(Oc2ccc(Cl)cc2)cc1
- Activity [9]: Non-toxic
- Ratio IC50 [1]: 254
- IC50 [2]: 0.008 µM
- IC50 [10]: 1.18 µM
- Ratio IC50 [11]: 4.8
- Drug metabolism [12]: 2699 nmol/min/mg
- Ratio IC50 [13]: 5
- IC50 [14]: 5.09 µM
- selectivity ratio [3]: 853
- IC50 [4]: 29 µM
- selectivity ratio [5]: 22
- IC50 [6]: 1.3 µM
- Drug metabolism [15]: 628 nmol/min/mg
- IC50 [16]: 80 µM
- selectivity ratio [7]: 3620
- Activity [17]: Active
- IC50 [18]: 5.9 µM
- IC50 [19]: > 27 µM
- IC50 [8]: 0.034 µM

SMILES: CC(C)NCC(O)COc1cccc2ccccc12 (centres undefined) [PROPRANOLOL]
- efflux ratio at 2 h [20]: 3.1

SMILES: O=C(Cn1ccnc1[N+](=O)[O-])Nc1ccc(Oc2ccc(F)cc2)cc1
- Ratio IC50 [1]: 0.61
- IC50 [2]: 3.3 µM
- Ratio IC50 [11]: 0.55
- selectivity ratio [3]: 418
- IC50 [4]: 123 µM
- selectivity ratio [5]: 9
- IC50 [6]: 13 µM
- IC50 [16]: > 84 µM
- selectivity ratio [7]: 37
- IC50 [19]: 14 µM
- IC50 [8]: 0.29 µM

SMILES: CC1CS(=O)(=O)CCN1/N=C/c1ccc([N+](=O)[O-])o1 (centres undefined) [NIFURTIMOX]
- IC50 [10]: 0.43 µM
- Ratio IC50 [13]: 10.3
- IC50 [18]: 4.41 µM

SMILES: O=C(Cn1cnc([N+](=O)[O-])n1)Nc1cccc(-c2ccccc2)c1
- half-life at 1 µM [21]: 1.06 h
- IC50 [4]: 45 µM
- half-life at 1 µM [22]: 1.8 h

SMILES: O=C(Cn1cnc([N+](=O)[O-])n1)Nc1nccc(-c2ccccc2)n1
- Ratio IC50 [1]: 0.8
- IC50 [2]: 2.5 µM
- IC50 [4]: 169 µM
- selectivity ratio [5]: 1.2
- IC50 [6]: 139 µM
- selectivity ratio [7]: 66
- IC50 [8]: > 308 µM

SMILES: COc1ccc2c(c1)[C@]13CCCC[C@@H]1[C@H](C2)N(C)CC3 [DEXTROMETHORPHAN]
- half-life at 1 µM [21]: 1.54 h
- half-life at 1 µM [22]: 2.57 h

SMILES: O=C(Cn1cnc([N+](=O)[O-])n1)Nc1ccc(Oc2ccc(F)cc2)cc1
- Activity [9]: Non-toxic
- Ratio IC50 [1]: 56
- IC50 [2]: 0.036 µM
- IC50 [10]: 0.77 µM
- Ratio IC50 [11]: 0.89
- Drug metabolism [12]: 2702 nmol/min/mg
- Ratio IC50 [13]: 4.8
- IC50 [14]: 3.13 µM
- selectivity ratio [3]: 384
- IC50 [4]: 70 µM
- selectivity ratio [5]: 35
- IC50 [6]: 2 µM
- Drug metabolism [15]: 516 nmol/min/mg
- IC50 [16]: 84 µM
- selectivity ratio [7]: 1950
- Activity [17]: Active
- IC50 [18]: 3.67 µM
- IC50 [19]: > 28 µM
- IC50 [8]: 0.18 µM

SMILES: O=C(Cn1cnc([N+](=O)[O-])n1)Nc1ccc(Oc2ccccc2)cc1
- Ratio IC50 [1]: 31
- IC50 [2]: 0.065 µM
- IC50 [10]: 1.37 µM
- Ratio IC50 [11]: 0.6
- Drug metabolism [12]: 2931 nmol/min/mg
- Ratio IC50 [13]: 1.7
- IC50 [14]: 1.35 µM
- selectivity ratio [3]: 339
- IC50 [4]: 92 µM
- selectivity ratio [5]: 34
- IC50 [6]: 2.7 µM
- Drug metabolism [15]: 815 nmol/min/mg
- IC50 [16]: 89 µM
- selectivity ratio [7]: 1420
- IC50 [18]: 2.34 µM
- IC50 [19]: > 30 µM
- IC50 [8]: 0.27 µM

SMILES: O=C(Cn1cncn1)Nc1ccc(Oc2ccc(Cl)cc2)cc1
- IC50 [2]: 18 µM
- selectivity ratio [3]: 5
- IC50 [4]: 137 µM
- IC50 [6]: 26 µM
- selectivity ratio [7]: 7.5
- IC50 [8]: 29 µM

SMILES: O=C(Cn1ccnc1[N+](=O)[O-])Nc1ccc(Oc2ccccc2)cc1
- Ratio IC50 [1]: 0.48
- IC50 [2]: 4.2 µM
- Ratio IC50 [11]: 0.21
- selectivity ratio [3]: 79
- IC50 [4]: 62 µM
- IC50 [6]: 15 µM
- IC50 [16]: > 89 µM
- selectivity ratio [7]: 15
- IC50 [19]: 16 µM
- IC50 [8]: 0.79 µM

SMILES: O=C(Cn1ccnc1[N+](=O)[O-])NCc1ccccc1 [BENZNIDAZOLE]
- Activity [9]: Non-toxic
- Drug metabolism [12]: 1540 nmol/min/mg
- Drug metabolism [15]: 680 nmol/min/mg
- Activity [17]: Active
